Results on 14 compounds are retold here after PMC12133982, “Predominant T-cell epitopes of SARS-CoV-2 restricted by multiple prevalent HLA-B and HLA-C allotypes in Northeast Asia” (Frontiers in Immunology, 2025).

Peptide text beside a SMILES is read from it.

One test has as its target HLA-C0602 (Homo sapiens, UniProt P10321, A176E/A330V/C350S/L171W/L180W/L218V/M285V/M309V/M331V/N104K/P208H/Q277E/Q291P/R121W/S101N/S123Y/S297R/T329A/T363A/V319A/V328M). Kind of test: Competitive peptide binding assay, CIR-C0602.
In a further test the target is HLA-C0102 (Homo sapiens, UniProt P10321, A176E/A330V/A35S/A97T/C350S/D114A/D33F/L171W/L180R/L218V/M285V/M309V/M331V/P208H/Q277E/Q291P/R121W/R243W/R30K/S123C/S140Y/S297R/T329A/T363A/V272M/V319A). Kind of test: Competitive peptide binding assay, CIR-C0102. As to the method: (§1) Then, competitive peptide binding assays were performed.
Another test addresses HLA-B4601 (Homo sapiens, UniProt P01889, A329T/A93R/C349S/D201E/E100V/E187L/E204Q/E69M/E70A/I90K/K202T/N87E/R155S/R180W/S121R/S35A/S48A/V306I/V36M/Y140S). Kind of test: Competitive peptide binding assay, CIR-B4601. The following applies: for IC50: HMy2.CIR-B4601 cells, reference Cy5-[…], class from inhibition at 5 and 15 μM, flow cytometry MFI, read-out: Binding affinity with HLA-B4601; for inhibition at 5 µM: read-out: Inhibition % of Cy5-reference peptide binding, CIR-B4601, 5μM peptide; for inhibition at 15 µM: read-out: Inhibition % of Cy5-reference peptide binding, CIR-B4601, 15μM peptide. Here is the method:
as §1
In general terms: Flow cytometry measures light scatter and fluorescence of single cells or particles in a stream.

Another test concerns the target HLA-B1502 (Homo sapiens, UniProt P01889, A329T/A93T/A95T/C349S/D201E/D98Y/E187L/E204Q/E69M/E70A/H137Y/K202T/L119I/Q94N/R155S/R180L/S121R/S35A/S48A/T118I/V306I/V36M/Y140S/Y91S). Kind of test: Competitive peptide binding assay, CIR-B1502. The settings on record: HMy2.CIR-B1502 cells, reference Cy5-[…], class from inhibition at 5 and 15 μM, flow cytometry MFI; read-out: Binding affinity with HLA-B1502. Here is the method: as §1

A further test concerns the target HLA-B1501 (Homo sapiens, UniProt P01889, A329T/A93T/A95T/C349S/D201E/D98Y/E187L/E204Q/E69M/E70A/K202T/N87E/Q94N/R155S/R180W/S121R/S35A/S48A/V306I/V36M/Y140S/Y91S). Kind of test: Competitive peptide binding assay, CIR-B1501. The settings on record: HMy2.CIR-B1501 cells, reference Cy5-[…], class from inhibition at 5 and 15 μM, flow cytometry MFI; read-out: Binding affinity with HLA-B1501. Here is the method: as §1

The target in another test is HLA-B5801 (Homo sapiens, UniProt P01889, A329T/C349S/D201E/D98Y/E176V/E187L/E204Q/E69T/G107R/I218V/I90N/K202T/L105A/L119I/N104I/N87E/Q89R/Q94S/R106L/R155S/R180L/R86G/S101N/S121R/S35A/S48A/T118I/V127L/V306I/V36M/Y140S/Y91M). Kind of test: Competitive peptide binding assay, CIR-B5801. The settings on record: HMy2.CIR-B5801 cells, reference Cy5-[…], class from inhibition at 5 and 15 μM, flow cytometry MFI; read-out: Binding affinity with HLA-B5801. Here is the method:
as §1

The next test has as its target HLA-B1301 (Homo sapiens, UniProt P01889, A65T/A93T/A95T/D138N/D201E/D98Y/E176V/E204Q/E69M/E70A/G107R/K202T/L105A/L119I/N104T/N87E/Q94N/R106L/R155S/R169L/R180L/S101N/S121R/S35A/S48T/T118I/V127L/V36M/Y140L/Y91S). Kind of test: Competitive peptide binding assay, CIR-B1301. The settings on record: HMy2.CIR-B1301 cells, reference Cy5-[…], class from inhibition at 5 and 15 μM, flow cytometry MFI; read-out: Binding affinity with HLA-B1301. As to the method: as §1

The target in a further test is HLA-B3501 (Homo sapiens, UniProt P01889, A329T/A93T/A95T/C349S/D201E/D98Y/E176V/E187L/E204Q/E69T/I218V/K202T/L119I/Q94N/R155S/R180L/S121R/S35A/S48A/T118I/V127L/V306I/V36M/Y140S/Y91F). Put plainly: Competitive peptide binding assay, CIR-B3501. The settings on record: HMy2.CIR-B3501 cells, reference Cy5-[…], class from inhibition at 5 and 15 μM, flow cytometry MFI; read-out: Binding affinity with HLA-B3501. Here is the method: as §1

[1] abbreviates: read-out: Inhibition % of Cy5-reference peptide binding.

`CC(C)C[C@H](NC(=O)[C@@H](NC(=O)[C@@H]1CCCN1C(=O)[C@H](CC(N)=O)NC(=O)[C@H](CC(=O)O)NC(=O)[C@H](Cc1ccccc1)NC(=O)[C@H](CCCNC(=N)N)NC(=O)[C@@H](N)CCCCN)C(C)C)C(=O)N1CCC[C@H]1C(=O)N[C@@H](Cc1ccccc1)C(=O)O` [Epitope M125] (H-KRFDNPVLPF-OH; N-terminus and C-terminus assumed) had an IC50 at HLA-C0602 of 5 to 15 µM.
The inhibition is the percentage by which the read-out fell short of the control. For `CC(C)C[C@H](NC(=O)[C@H](C)NC(=O)[C@@H](NC(=O)[C@@H](N)CC(C)C)[C@@H](C)O)C(=O)N[C@@H](CCCNC(=N)N)C(=O)N[C@@H](CC(C)C)C(=O)N[C@@H](CS)C(=O)N[C@@H](C)C(=O)N[C@@H](Cc1ccc(O)cc1)C(=O)O` [Epitope M51] (H-LTALRLCAY-OH; N-terminus and C-terminus assumed), the IC50 at HLA-C0102 (HMy2.CIR-C0102 cells, reference Cy5-[…], class from inhibition at 5 and 15 μM, flow cytometry MFI, read-out: Binding affinity with HLA-C0102) is 5 to 15 µM. Further, at HLA-C0102 (setting [1]), the inhibition at 5 µM worked out at 42.9% and the inhibition at 15 µM was 77.6%. At HLA-C0602, the IC50 is less than 5 µM.
Take `CC[C@H](C)[C@H](NC(=O)CNC(=O)[C@H](CC(=O)O)NC(=O)[C@H](CCCCN)NC(=O)[C@H](CC(N)=O)NC(=O)[C@H](C)NC(=O)CNC(=O)[C@H](Cc1ccc(O)cc1)NC(=O)[C@@H]1CCCN1C(=O)[C@@H](N)CC(C)C)C(=O)O` [Epitope Y273] (H-LPYGANKDGI-OH; N-terminus and C-terminus assumed): the IC50 was more than 15 µM on HLA-B4601, 5 to 15 µM at HLA-B1502, more than 15 µM on HLA-B1501 and more than 15 µM at HLA-B5801. In addition, the inhibition at 5 µM at HLA-B4601 came out at 11.6%. The inhibition at 15 µM at HLA-B4601 came out at 31%.
With `CC(C)C[C@H](NC(=O)[C@@H](N)CCC(N)=O)C(=O)N[C@H](C(=O)N1CCC[C@H]1C(=O)N[C@H](C(=O)N[C@@H](Cc1c[nH]c2ccccc12)C(=O)N[C@@H](CCCNC(=N)N)C(=O)N[C@H](C(=O)N[C@@H](Cc1ccc(O)cc1)C(=O)O)C(C)C)[C@@H](C)O)[C@@H](C)O` [Epitope Y175] (H-QLTPTWRVY-OH; N-terminus and C-terminus assumed), the IC50 at HLA-B1502 was 5 to 15 µM; at HLA-B1301 it was more than 15 µM; on HLA-B1501, more than 15 µM; on HLA-B3501, more than 15 µM; on HLA-B5801 it was less than 5 µM.
The compound `CC[C@H](C)[C@H](N)C(=O)N[C@H](C(=O)N[C@@H](CC(=O)O)C(=O)N[C@@H](C)C(=O)N[C@H](C(=O)N[C@@H](CC(=O)O)C(=O)N[C@@H](CS)C(=O)N[C@@H](C)C(=O)N[C@@H](CC(C)C)C(=O)O)C(C)C)[C@@H](C)O` [Epitope M161, ITDAVDCAL] (H-ITDAVDCAL-OH; N-terminus and C-terminus assumed) yielded an IC50 at HLA-C0602 of more than 15 µM.
The same measure, in the same setting: the figure for `CC(C)[C@H](NC(=O)CNC(=O)[C@H](CCC(=O)O)NC(=O)[C@H](CCCNC(=N)N)NC(=O)[C@@H]1CCCN1C(=O)[C@H](Cc1ccccc1)NC(=O)[C@H](Cc1c[nH]cn1)NC(=O)[C@H](C)N)C(=O)N[C@@H](Cc1ccccc1)C(=O)O` [Epitope M157] (H-AHFPREGVF-OH; N-terminus and C-terminus assumed) is more than 15 µM.
With `CC(C)C[C@H](NC(=O)[C@@H](NC(=O)[C@H](CCCNC(=N)N)NC(=O)[C@H](CO)NC(=O)[C@@H](NC(=O)[C@H](C)NC(=O)[C@@H](N)C(C)C)[C@@H](C)O)[C@@H](C)O)C(=O)N[C@@H](CO)C(=O)N[C@@H](Cc1ccc(O)cc1)C(=O)O` [Epitope Y158] (H-VATSRTLSY-OH; N-terminus and C-terminus assumed), the IC50 was 5 to 15 µM at HLA-B1502, less than 5 µM at HLA-B1501, 5 to 15 µM on HLA-B3501 and more than 15 µM at HLA-B5801.
At HLA-C0602, `CC(C)[C@H](NC(=O)[C@H](Cc1ccc(O)cc1)NC(=O)[C@H](CCC(=O)O)NC(=O)[C@H](Cc1ccccc1)NC(=O)[C@@H](N)[C@@H](C)O)C(=O)N[C@@H](CO)C(=O)N[C@@H](CCC(N)=O)C(=O)N1CCC[C@H]1C(=O)N[C@@H](Cc1ccccc1)C(=O)O` [Epitope M180] (H-TFEYVSQPF-OH; N-terminus and C-terminus assumed) yielded an IC50 of more than 15 µM.
On to `CC[C@H](C)[C@H](NC(=O)[C@H](CCC(N)=O)NC(=O)[C@@H](N)CC(C)C)C(=O)N1CCC[C@H]1C(=O)N[C@@H](Cc1ccccc1)C(=O)N[C@@H](C)C(=O)N[C@@H](CCSC)C(=O)N[C@@H](CCC(N)=O)C(=O)N[C@@H](CCSC)C(=O)O` [Epitope Y81] (H-LQIPFAMQM-OH; N-terminus and C-terminus assumed), for which, on HLA-B4601, the IC50 is more than 15 µM, the inhibition at 5 µM is 9.21% and the inhibition at 15 µM came out at 44%. Moreover, the IC50 at HLA-B1301 is less than 5 µM. Further, the IC50 at HLA-B1501 was more than 15 µM.
Turning to `CC(C)[C@H](NC(=O)CNC(=O)[C@H](Cc1c[nH]cn1)NC(=O)[C@@H]1CCCN1C(=O)[C@H](C)NC(=O)[C@H](CO)NC(=O)[C@@H](N)CCC(N)=O)C(=O)N[C@H](C(=O)N[C@@H](Cc1ccccc1)C(=O)O)C(C)C` [Epitope Y146] (H-QSAPHGVVF-OH; N-terminus and C-terminus assumed), the values for the IC50 on HLA-B1502, at HLA-B1501 and at HLA-B3501 were 5 to 15 µM, less than 5 µM and more than 15 µM, respectively.
On to `CC(C)C[C@H](NC(=O)[C@H](CC(C)C)NC(=O)[C@H](CC(C)C)NC(=O)[C@H](C)NC(=O)[C@H](CC(C)C)NC(=O)[C@H](C)NC(=O)[C@H](C)NC(=O)[C@H](CC(=O)O)NC(=O)CN)C(=O)O` [Epitope Y65] (H-GDAALALLL-OH; N-terminus and C-terminus assumed), for which the IC50 at HLA-B1301 is less than 5 µM; on HLA-B1501, 5 to 15 µM; at HLA-B3501 it was more than 15 µM; at HLA-B5801, 5 to 15 µM.
For the compound `CC[C@H](C)[C@H](N)C(=O)N[C@@H](C)C(=O)N[C@@H](CC(N)=O)C(=O)N[C@@H](CCC(N)=O)C(=O)N[C@@H](Cc1ccccc1)C(=O)N[C@@H](CC(N)=O)C(=O)N[C@@H](CO)C(=O)N[C@@H](C)C(=O)N[C@H](C(=O)O)[C@@H](C)CC` [Epitope Y283] (H-IANQFNSAI-OH; N-terminus and C-terminus assumed), the IC50 is more than 15 µM at HLA-B1502, more than 15 µM at HLA-B1301 and 5 to 15 µM at HLA-B1501.
As for `CC[C@H](C)[C@H](NC(=O)[C@@H](NC(=O)[C@H](CC(C)C)NC(=O)[C@H](CCC(=O)O)NC(=O)[C@H](CO)NC(=O)[C@H](CCC(=O)O)NC(=O)[C@H](CC(C)C)NC(=O)[C@H](CC(C)C)NC(=O)[C@@H]1CCCN1C(=O)[C@@H](N)CCCNC(=N)N)C(C)C)C(=O)O` [Epitope Y43] (H-RPLLESELVI-OH; N-terminus and C-terminus assumed), the IC50 at HLA-B1301 was in the range of 5 to 15 µM.
For the compound `CC[C@H](C)[C@H](NC(=O)[C@H](C)NC(=O)[C@@H](N)CC(C)C)C(=O)N[C@@H](CC(C)C)C(=O)N[C@H](C(=O)N[C@@H](C)C(=O)N[C@@H](CC(C)C)C(=O)N[C@@H](CCCNC(=N)N)C(=O)N[C@@H](CC(C)C)C(=O)O)[C@@H](C)O` [Epitope Y7] (H-LAILTALRL-OH; N-terminus and C-terminus assumed), the IC50 is more than 15 µM at HLA-B4601 and 5 to 15 µM at HLA-B3501.
